Tests used:
spleen T cells [1] = assay: Cytokine secretion by anti-CD3/CD28-activated T cells (Cytometric Bead Array); format: cell-based, C57BL/6 mice; details: 30 μM
Protocol: To confirm the effect of compounds of the present invention on the secretion of cytokines by T cells, the following experiment was conducted.
Spleens were harvested and minced from C57BL/6 mice at 7 weeks of age, and single cells were isolated using a strainer (40 μm pore size, SPL). Red blood cells were removed using ACK (Ammonium-Chloride-Potassium) lysis buffer to isolate only leukocytes. These were then reacted with 10 v/v % CD90.2 microbeads (130-121-278, Miltenyi Biotech.) at 4° C. for 20 minutes, resulting in the isolation of spleen T cells from magnetic-based purification. The T cells were cultured in a 96-well plate at an amount of 2×10^5 cells/well. For T cell activation, each well was treated with anti-CD3/CD28 antibodies at a concentration of 1 μg/mL. Subsequently, Vehicle (DMSO) and compounds (Compound 14, Compound 19, Compound 26, Compound 31, Compound 35, Compound 40, Compound 41, Compound 56, Compound 69, Compound 75) at a concentration of 30 μM were treated in each well, and it was cultured at 37° C. in a 5% CO2 incubator. After 24 and 72 hours, the T cell culture medium was taken, and centrifugation was performed at 13,000 rpm for 10 minutes to obtain the supernatant.
To measure the concentration of cytokines present in the T cell culture medium, Mouse Th1/Th2/Th17 Cytokine CBA Kit (Cytometric Bead Array kit) 560485 from BD Science was utilized for flow cytometry analysis. The secretion levels of IL-2 at 24 hours after each drug treatment, and IFN-γ, TNF-α, and IL-17A at 72 hours were measured after each drug treatment.

spleen T cells [2] = assay: T cell proliferation inhibition (CFSE, FACS), CD3/CD28-activated spleen T cells; format: cell-based, C57BL/6 mice
Method in brief: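 Proliferation inhibition is expressed as a percentage versus CD3/CD28-stimulated DMSO controls, from CFSE dye dilution measured by FACS after 3 days at 37 °C. Compounds at 10, 30 and 50 μM (triplicate) on anti-CD3/CD28-activated (0.5 μg/mL each) C57BL/6 mouse spleen T cells, 2×10^5 per well.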

CCCCCCCCCCCCNC(=O)c1cccnc1N [Compound 69]
secretion of IL-2 (spleen T cells [1]; 24 hours after treatment, FIG. 3): significant decrease | secretion of IFN-γ (spleen T cells [1]; 72 hours after treatment): significant decrease | secretion of IL-17A (spleen T cells [1]; 72 hours after treatment): significant decrease | secretion of TNF-α (spleen T cells [1]; 72 hours after treatment): significant decrease | inhibition at 10 µM (spleen T cells [2]; Mus musculus, T-cell, 72 h, Table 2, 10 μM, 3 days, relative to CD3/CD28+DMSO, read-out: Proliferation inhibition rate (%)): 99% | inhibition at 30 µM (spleen T cells [2]; Mus musculus, T-cell, 72 h, Table 2, 30 μM, 3 days, relative to CD3/CD28+DMSO, read-out: Proliferation inhibition rate (%)): 100% | inhibition at 50 µM (spleen T cells [2]; Mus musculus, T-cell, 72 h, Table 2, 50 μM, 3 days, relative to CD3/CD28+DMSO, read-out: Proliferation inhibition rate (%)): 100% | cell proliferation read by FACS (FIG. 2) (spleen T cells [2]; concentrations ranging from 10 to 30 μM): inhibition of cell proliferation

— patent publication US20250296909A1, “NOVEL BENZENE DERIVATIVE AND IMMUNOSUPPRESSION-RELATED USE THEREOF” (PROVIBIO CO., LTD., priority 2021, published 2025)
